Experimental data reported in patent publication US20150315188A1, “COMPOUNDS AND METHODS FOR TREATMENT OF HYPERTENSION” (MEDIVATION TECHNOLOGIES, INC., priority 2012, published 2015).

Key:
Design in all cases: purchased Milipore (Millipore)
[1] = target: T1, Human adrenergic α2B receptor (Homo sapiens, UniProt P18089); experiment: Radioligand binding, adrenergic α2B (Protocol Group B); details: for Percentage inhibition of ligand binding, Adrenergic α2B, 0.1 nM: 0.0001 µM; for Percentage inhibition of ligand binding, Adrenergic α2B (10 nM) / inhibition at 0.01 µM: 10 nM compound; for Percentage inhibition of ligand binding, Adrenergic α2B (10 nM): 0.01 µM; for inhibition at 0.03 µM: read-out: Percentage inhibition of ligand binding, Adrenergic α2B (30 nM); for inhibition at 0.1 µM: read-out: Percentage inhibition of ligand binding, Adrenergic α2B (0.1 μM); for Ki: estimated Ki, read-out: Ki α2B; for inhibition at 0.01 µM: read-out: Percentage inhibition of ligand binding, Adrenergic α2B (10 nM)
T1 sequence (P18089 1-450): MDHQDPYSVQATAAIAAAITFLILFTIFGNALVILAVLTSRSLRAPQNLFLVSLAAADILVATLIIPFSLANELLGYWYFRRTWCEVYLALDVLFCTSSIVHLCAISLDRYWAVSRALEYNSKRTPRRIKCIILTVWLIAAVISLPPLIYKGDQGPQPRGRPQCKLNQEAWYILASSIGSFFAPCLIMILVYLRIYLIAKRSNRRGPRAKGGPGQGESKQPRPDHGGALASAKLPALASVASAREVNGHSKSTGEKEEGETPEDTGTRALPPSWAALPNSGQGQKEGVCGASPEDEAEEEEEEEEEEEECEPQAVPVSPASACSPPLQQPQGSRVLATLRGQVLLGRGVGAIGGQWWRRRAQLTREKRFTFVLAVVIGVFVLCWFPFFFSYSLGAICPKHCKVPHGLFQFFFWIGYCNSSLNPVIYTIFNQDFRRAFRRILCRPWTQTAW
Summary of the method: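 Compounds at various concentrations in 1% DMSO were tested on recombinant membranes in Tris-HCl pH 7.4 buffer containing MgCl2, CaCl2 and 0.2% BSA.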

[2] = target: T2, Human adrenergic α2A receptor (Homo sapiens, UniProt P08913); experiment: Radioligand binding, adrenergic α2A (Protocol Group B); details: for Percentage inhibition of ligand binding, Adrenergic α2A (0.3 μM) / inhibition at 0.3 µM: 0.3 μM compound; for Ki: estimated Ki; for inhibition at 0.3 µM: read-out: Percentage inhibition of ligand binding, Adrenergic α2A (0.3 μM); for inhibition at 1 µM: 1 μM compound, read-out: Percentage inhibition of ligand binding, Adrenergic α2A, 1 μM; for inhibition at 3.2 µM: 3.2 μM compound, read-out: Percentage inhibition of ligand binding, Adrenergic α2A, 3.2 μM
T2 sequence (P08913 1-465): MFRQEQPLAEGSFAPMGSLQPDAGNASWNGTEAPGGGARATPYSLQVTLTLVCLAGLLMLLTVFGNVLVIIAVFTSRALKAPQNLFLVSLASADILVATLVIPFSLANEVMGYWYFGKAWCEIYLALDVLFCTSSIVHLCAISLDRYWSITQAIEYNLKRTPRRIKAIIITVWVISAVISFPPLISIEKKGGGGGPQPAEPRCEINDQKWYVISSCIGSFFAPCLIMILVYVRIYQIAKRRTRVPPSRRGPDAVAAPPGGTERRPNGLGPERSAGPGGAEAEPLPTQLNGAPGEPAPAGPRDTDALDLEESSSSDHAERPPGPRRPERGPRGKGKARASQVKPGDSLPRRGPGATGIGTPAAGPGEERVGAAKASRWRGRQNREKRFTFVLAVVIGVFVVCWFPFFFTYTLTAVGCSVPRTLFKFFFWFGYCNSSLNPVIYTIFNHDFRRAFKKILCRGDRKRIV
Summary of the method: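 Compounds (1% DMSO vehicle, various concentrations) competed against 2 nM [^3H]MK-912 on recombinant receptor membranes for 60 min at 25° C, Tris-HCl pH 7.4 buffer with Mg2+, Ca2+, BSA. Bound radioligand filtered and counted; 10 μM rauwolscine set nonspecific binding. Values: percent inhibition of specific binding or estimated Ki.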

[3] = target: T3, Human adrenergic α1B receptor (Homo sapiens, UniProt P35368); experiment: Radioligand binding, adrenergic α1B (Protocol Group B); details: for inhibition at 0.1 µM / Percentage inhibition of ligand binding, Adrenergic α1B (0.1 μM): 0.1 μM compound; for inhibition at 0.1 µM: read-out: Percentage inhibition of ligand binding, Adrenergic α1B (0.1 μM); for inhibition at 0.3 µM: read-out: Percentage inhibition of ligand binding, Adrenergic α1B (0.3 μM); for Ki: estimated Ki; for inhibition at 0.0032 µM: 3.2 nM compound, read-out: Percentage inhibition of ligand binding, Adrenergic α1B, 3.2 nM; for inhibition at 0.32 µM: 0.32 μM compound, read-out: Percentage inhibition of ligand binding, Adrenergic α1B, 0.32 μM; for inhibition at 1 µM: 1 μM compound, read-out: Percentage inhibition of ligand binding, Adrenergic α1B, 1 μM
T3 sequence (P35368 1-520): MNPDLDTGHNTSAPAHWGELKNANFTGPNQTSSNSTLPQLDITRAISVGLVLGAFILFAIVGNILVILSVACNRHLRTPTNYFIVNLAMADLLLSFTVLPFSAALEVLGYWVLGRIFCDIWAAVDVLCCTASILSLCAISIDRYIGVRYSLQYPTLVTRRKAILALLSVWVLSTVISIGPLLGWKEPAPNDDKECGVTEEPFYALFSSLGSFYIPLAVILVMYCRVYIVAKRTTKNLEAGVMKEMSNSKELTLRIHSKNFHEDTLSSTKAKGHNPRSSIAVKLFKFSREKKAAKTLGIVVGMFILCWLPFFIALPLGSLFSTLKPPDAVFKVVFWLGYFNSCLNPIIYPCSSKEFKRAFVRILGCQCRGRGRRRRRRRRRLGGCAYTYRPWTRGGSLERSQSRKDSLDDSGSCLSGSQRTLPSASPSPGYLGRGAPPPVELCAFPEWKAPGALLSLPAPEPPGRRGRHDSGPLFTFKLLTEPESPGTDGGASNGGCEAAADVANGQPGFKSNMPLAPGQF
Summary of the method: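 Values are percent inhibition of specific [3H]prazosin (0.3 nM) binding or estimated Ki, from filtration counting. Human α1B recombinant membranes, Tris-HCl pH 7.4 buffer with MgCl2 and EDTA, 60 min at 25 °C, 1% DMSO vehicle; 10 μM prazosin defined nonspecific binding.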

[4] = 0.1 nM compound, concentration series
[5] = 30 nM compound, Protocol Group B
[6] = 0.1 μM compound, Protocol Group B
[7] = 0.3 μM compound, Protocol Group B
[8] = 3.2 nM compound, concentration series, 0.0032 µM
[9] = 10 nM compound, concentration series, 0.01 µM
[10] = 0.032 μM compound, concentration series, 0.032 µM

| SMILES | Percentage inhibition of ligand binding, Adrenergic α2B, 0.1 nM [1, 4] | Percentage inhibition of ligand binding, Adrenergic α2B (10 nM) ([1]; Protocol Group B) | inhibition at 0.03 µM [1, 5] | inhibition at 0.1 µM [1, 6] | Ki ([1]; Protocol Group B) | Percentage inhibition of ligand binding, Adrenergic α2A (0.3 μM) ([2]; Protocol Group B) | Ki ([2]; Protocol Group B) | inhibition at 0.1 µM ([3]; Protocol Group B) | inhibition at 0.3 µM [3, 7] | Ki ([3]; Protocol Group B) | Percentage inhibition of ligand binding, Adrenergic α2A (0.1 μM) [2, 6] | Percentage inhibition of ligand binding, Adrenergic α1B (0.1 μM) ([3]; Protocol Group B) | inhibition at 0.01 µM ([1]; Protocol Group B) | inhibition at 0.3 µM ([2]; Protocol Group B) | inhibition at 1 µM ([2]; concentration series) | inhibition at 3.2 µM ([2]; concentration series) | inhibition at 0.0032 µM ([3]; concentration series) | inhibition at 0.32 µM ([3]; concentration series) | inhibition at 1 µM ([3]; concentration series) | further results |
| --- | --- | --- | --- | --- | --- | --- | --- | --- | --- | --- | --- | --- | --- | --- | --- | --- | --- | --- | --- | --- |
| Cc1ccc2c(c1)c1c(n2CC(O)c2ccncc2F)CCN2CCCC12 (single isomer, unassigned) [14a] | −28% | 60% | 81% | 89% | 6.5 nM | 39% | 305 nM | 70% | 87% | 18.2 nM |  |  |  |  |  |  |  |  |  |  |
| Cc1ccc2c(c1)c1c(n2CC(O)c2ccncc2F)CCN2CCCC12 (single isomer, unassigned) [14b] | 18% | 98% |  |  | 1.1 nM | 89% | 6.8 nM |  |  | 4.5 nM | 80% | 85% |  |  |  |  |  |  |  | Percentage inhibition of ligand binding, Adrenergic α2B (30 nM) ([1]; 30 nM compound, Protocol Group B, 0.03 µM): 100%; Percentage inhibition of ligand binding, Adrenergic α2B (0.1 μM) ([1]; 0.1 μM compound, Protocol Group B, 0.1 µM): 96%; Percentage inhibition of ligand binding, Adrenergic α1B (0.3 μM) ([3]; 0.3 μM compound, Protocol Group B, 0.3 µM): 95% |
| OC(Cn1c2c(c3cc(F)ccc31)C1CCCN1CC2)c1ccncc1 (single isomer, unassigned) [18b] |  |  | 97% | 100% | 1.03 nM |  | 55.9 nM | 45% | 63% | 65.8 nM |  |  | 94% | 71% | 90% | 96% | 14% | 74% | 87% | inhibition at 30 pM ([1]; 0.03 nM compound, concentration series, read-out: Percentage inhibition of ligand binding, Adrenergic α2B, 0.03 nM): 19%; inhibition at 0.0001 µM ([1]; 0.1 nM compound, concentration series, read-out: Percentage inhibition of ligand binding, Adrenergic α2B, 0.1 nM): 6%; inhibition at 0.00032 µM ([1]; 0.32 nM compound, concentration series, read-out: Percentage inhibition of ligand binding, Adrenergic α2B, 0.32 nM): 14%; inhibition at 0.001 µM ([1]; 1 nM compound, concentration series, read-out: Percentage inhibition of ligand binding, Adrenergic α2B, 1 nM): 29%; inhibition at 0.0032 µM ([1]; 3.2 nM compound, concentration series, read-out: Percentage inhibition of ligand binding, Adrenergic α2B, 3.2 nM): 78%; inhibition at 0.0032 µM ([2]; 3.2 nM compound, concentration series, read-out: Percentage inhibition of ligand binding, Adrenergic α2A, 3.2 nM): 8%; inhibition at 0.01 µM ([2]; 10 nM compound, concentration series, read-out: Percentage inhibition of ligand binding, Adrenergic α2A, 10 nM): 12%; inhibition at 0.03 µM ([2]; 0.03 μM compound, concentration series, read-out: Percentage inhibition of ligand binding, Adrenergic α2A, 0.03 μM): 27%; inhibition at 0.1 µM ([2]; 0.1 μM compound, Protocol Group B, read-out: Percentage inhibition of ligand binding, Adrenergic α2A (0.1 μM)): 45%; inhibition at 0.32 µM ([2]; 0.32 μM compound, concentration series, read-out: Percentage inhibition of ligand binding, Adrenergic α2A, 0.32 μM): 76%; inhibition at 10 µM ([2]; 10 μM compound, concentration series, read-out: Percentage inhibition of ligand binding, Adrenergic α2A, 10 μM): 99%; inhibition at 0.01 µM ([3]; 10 nM compound, concentration series, read-out: Percentage inhibition of ligand binding, Adrenergic α1B, 10 nM): 17%; inhibition at 0.03 µM ([3]; 0.03 μM compound, concentration series, read-out: Percentage inhibition of ligand binding, Adrenergic α1B, 0.03 μM): 14%; inhibition at 3.2 µM ([3]; 3.2 μM compound, concentration series, read-out: Percentage inhibition of ligand binding, Adrenergic α1B, 3.2 μM): 96%; inhibition at 10 µM ([3]; 10 μM compound, concentration series, read-out: Percentage inhibition of ligand binding, Adrenergic α1B, 10 μM): 99% |
| Cc1cc(C)c2c(c1)c1c(n2CC(C)(O)c2ccncc2)CCN2CCCC12 (single isomer, unassigned) [19a] | 8% |  | 99% | 100% | 1 nM |  | 16.2 nM |  | 93% | 7.5 nM | 72% | 82% | 94% | 87% | 98% | 100% | 7% | 96% | 95% | inhibition at 32 pM ([1]; 0.032 nM compound, concentration series, read-out: Percentage inhibition of ligand binding, Adrenergic α2B, 0.032 nM): 3%; Percentage inhibition of ligand binding, Adrenergic α2B, 0.32 nM ([1]; 0.32 nM compound, concentration series, 0.00032 µM): 9%; Percentage inhibition of ligand binding, Adrenergic α2B, 1 nM ([1]; 1 nM compound, concentration series, 0.001 µM): 18%; Percentage inhibition of ligand binding, Adrenergic α2B, 3.2 nM [1, 8]: 64%; inhibition at 0.032 µM ([1]; 0.032 μM compound, concentration series, read-out: Percentage inhibition of ligand binding, Adrenergic α2B, 0.032 μM): 99%; inhibition at 0.001 µM ([2]; 1 nM compound, concentration series, read-out: Percentage inhibition of ligand binding, Adrenergic α2A, 1 nM): 3%; Percentage inhibition of ligand binding, Adrenergic α2A, 3.2 nM [2, 8]: 0%; Percentage inhibition of ligand binding, Adrenergic α2A, 10 nM [2, 9]: 22%; Percentage inhibition of ligand binding, Adrenergic α2A, 0.032 μM [2, 10]: 49%; Percentage inhibition of ligand binding, Adrenergic α2A, 0.32 μM ([2]; 0.32 μM compound, concentration series, 0.32 µM): 92%; inhibition at 0.00032 µM ([3]; 0.32 nM compound, concentration series, read-out: Percentage inhibition of ligand binding, Adrenergic α1B, 0.32 nM): 13%; inhibition at 0.001 µM ([3]; 1 nM compound, concentration series, read-out: Percentage inhibition of ligand binding, Adrenergic α1B, 1 nM): 2%; Percentage inhibition of ligand binding, Adrenergic α1B, 10 nM [3, 9]: 24%; Percentage inhibition of ligand binding, Adrenergic α1B, 0.032 μM [3, 10]: 61% |
